Patent US8603227B2, “Composition for prevention of influenza viral infection comprising tannic acid, air filter comprising the same and air cleaning device comprising the filter” (Woongjin Coway Co., Ltd., priority 2009, dated 2013)

Legend:
Assay type in all cases: cell-based, influenza A virus subtype H1N1
[1] = tested on: influenza A/WSN/33 (H1N1); test: Plaque assay of tannic acid against influenza A/WSN/33 (H1N1) on MDCK cells
Description: (§1) Tannic acid was assayed for inhibitory activity against influenza virus as follows.
(§2) As influenza virus strains to be tested, influenza A subtype H1N1 viruses A/PR/8 (H1N1) and A/WSN (H1N1) as well as the WHO standard strain influenza A (H1N1) (A/California/O4/09), which was responsible for the declaration of the 2009 pandemic, were used.
(§3) Tannic acid was used as a sample in the following procedure.
(§4) The MDCK (Mardine Darbine Canine Kidney) cell line was inoculated at a density of 1.5×10^6 cells/mL into 6-well plates which were then incubated at 37° C. for 24 his in a 5% CO2 atmosphere. Separately, tannic acid was diluted to 100 mg/ml (1×) in an injection solution. The dilution was subjected to serial 10-fold dilutions. The specimens thus obtained were added in an amount of 90 μL per well to 96-well plates. 10 uL of an influenza virus sample was added to each well, incubated for 10 min, and 10-fold diluted with PBS. The MDCK cell line which had grown to confluence on the plates was infected with 1 mL of the dilution and incubated for 1 hr. For an “infection+non-administration” control, the MDCK cell line was infected with influenza virus which had not been treated with tannic acid.
(§5) Thereafter, the medium was removed, and a mixture of 1:1 2× agarose:2×MEM containing 10 μg/ml trypsin was added in an amount of 2 mL per well. […]

[2] = tested on: new influenza A (H1N1) (A/California/O4/09); test: Plaque assay of tannic acid against new influenza A (H1N1) A/California/O4/09 on MDCK cells
Description: as §1, §2, §3, §4, §5

influenza A/PR/8 (H1N1) = test: Plaque assay of tannic acid against influenza A/PR/8 (H1N1) on MDCK cells
Description: as §1, §2, §3, §4, §5

[3] = (1-treated/control)x100, MDCK plaque count
[4] = virus incubated 10 min with tannic acid, MDCK plaque count

O=C(OC[C@H]1O[C@@H](OC(=O)c2cc(O)c(O)c(OC(=O)c3cc(O)c(O)c(O)c3)c2)[C@H](OC(=O)c2cc(O)c(O)c(OC(=O)c3cc(O)c(O)c(O)c3)c2)[C@@H](OC(=O)c2cc(O)c(O)c(OC(=O)c3cc(O)c(O)c(O)c3)c2)[C@@H]1OC(=O)c1cc(O)c(O)c(OC(=O)c2cc(O)c(O)c(O)c2)c1)c1cc(O)c(O)c(OC(=O)c2cc(O)c(O)c(O)c2)c1 [Tannic Acid, Tannic acid]
99.99%: Inhibitory Activity [1, 3] | Inhibitory Activity [2, 3] | Inhibitory Activity (influenza A/PR/8 (H1N1); [3])
Not-detected: Virus Titer [1, 4] | Virus Titer [2, 4] | Virus Titer (influenza A/PR/8 (H1N1); [4])
